Measured values published in patent US6635459B1, “Nucleotide sequences encoding pinoresinol/lariciresinol reductase proteins and their methods of use” (Washington State University Research Foundation, priority 1996, dated 2003).

Key:
[1] = test system: HW-1; conditions: cited from earlier work
[2] = test system: HIV; conditions: cited from earlier work
[3] = test system: E-sinapyl alcohol; assay: E-sinapyl alcohol coupling assay (oxidant with/without dirigent protein); assay type: biochemical, Forsythia intermedia; conditions: 6 hour assay
Procedure: Investigation of Substrate-Specific Stereoselectivity. The coupling stereoselectivity was substrate specific. Neither E-p-[9-^3H]coumaryl (4 μmol ml^−1, 44.5 kBq) or E-[8-^14C]sinapyl alcohols (4 μmol ml^−1, 8.3 kBq), which differ from E-coniferyl alcohol only by a methoxyl group substituent on the aromatic ring, yielded stereoselective products when incubated for 6 hours with FMN and ammonium peroxydisulfate respectively, in the presence and absence of the dirigent protein. Incubations were carried out as described above with the following modifications: E-p-[9-^3H]coumaryl (4 μmol ml^−1, 44.5 kBq) or E-[8-^14C]sinapyl alcohols (4 μmol ml^−1, 8.3 kBq) were used as substrates and, after 6 hour incubation at 30° C., the reaction mixture was extracted with EtOAc but without addition of radiochemical carriers.

[4] = test system: E-coniferyl alcohol; assay: E-coniferyl alcohol coupling assay (oxidant with/without dirigent protein); assay type: biochemical, Forsythia intermedia; conditions: 6 hour assay
Procedure: E-coniferyl alcohol coupling assay. E-[9-^3H]Coniferyl alcohol (4 μmol ml^−1, 29.3 kBq) was incubated with a 120-kD laccase (previously purified from Forsythia intermedia stem tissue) over a […], in the presence and absence of the dirigent protein, as follows. Each assay consisted of E-[9-^3H]coniferyl alcohol (4 μmol ml^−1, 29.3 kBq, 7.3 MBq mole liter^−1; or 2 μmol ml^−1, 14.7 kBq with fraction III), the 78-kD dirigent protein, an oxidase or oxidant, or both [final concentrations: 770 pmol ml^−1 dirigent protein; 10.7 pmol protein ml^−1 Forsythia laccase; 12 μg protein ml^−1 fraction III; 0.5 μmol ml^−1 FMN; 0.5 μmol ml^−1 FAD; 1 and 10 μmol ml^−1 ammonium peroxydisulfate] in buffer (0.1 M MES-HEPES-sodium acetate, pH 5.0) to a total volume of 250 μl. The enzymatic reaction was initiated by addition of E-[9-^3H]coniferyl alcohol. Controls were performed in the presence of buffer alone.
After one hour incubation at 30° C. while shaking, the assay mixture was extracted with ethyl acetate (EtOAc, 500 μl) containing (±)-pinoresinols (7.5 μg), (±)-dehydrodiconiferyl alcohols (3.5 μg) and erythro/threo (±)-guaiacylglycerol 8-O-4′-coniferyl alcohol ethers (7.5 μg) as radiochemical carriers and ferulic acid (15.0 μg) as an internal standard. After centrifugation (13,800 g, 5 min), the EtOAc soluble components were removed and the extraction procedure repeated with EtOAc (500 μl). The EtOAc soluble components from each assay were combined, the solutions evaporated to dryness in vacuo, redissolved in methanol-water solution (1:1; 100 μl) with an aliquot (50 μl) thereof subjected to reversed-phase column chromatography (Waters, Nova-Pak C18, 150 mm by 3.8 mm). The elution conditions were as follows: acetonitrile/3% acetic acid in H2O (5:95) from 0 to 5 min, then linear gradients to ratios of 10:90 between 5 and 20 min, then to 20:80 between 20 and 45 min and finally to 50:50 between 45 and 60 min, at a flow rate of 8.8 ml min^−1 cm^−2.
Fractions corresponding to E-coniferyl alcohol, erythro/threo (±)-guaiacylglycerol 8-O-4′-coniferyl alcohol ethers, (±)-dehydrodiconiferyl alcohols and (±)-pinoresinols were individually collected, aliquots removed for liquid scintillation counting, and the remainder freeze-dried. Pinoresinol-containing fractions were redissolved in methanol (100 μl) and subjected to chiral column chromatography (Daicel, Chiralcel OD, 50 mm by 4.6 mm) with a solution of hexanes and ethanol (1:1) as the mobile phase (flow rate 3 ml min^−1 cm^−2), whereas dehydrodiconiferyl alcohol fractions were subjected to Chiralcel OF (250 mm by 4.6 mm) column chromatography eluted with a solution of hexanes and isopropanol (9:1) as the mobile phase (flow rate 2.4 ml min^−1 cm^−2), the radioactivity of the eluent being measured with a flow-through detector (Radiomatic, Model A120).
Ammonium peroxydisulfate readily undergoes homolytic cleavage (A. Usaitis, R. Makuska, Polymer 35:4896 (1994)) and is routinely used as an one-electron oxidant in acrylamide polymerization. Ammonium peroxydisulfate was first incubated with E-[9-^3H]coniferyl alcohol (4 μmol ml^−1, 29.3 kBq) for 6 hours using the E-coniferyl alcohol coupling assay procedure described above.

[5] = test system: E-coniferyl alcohol; assay: Kinetic characterization of conversion of E-coniferyl alcohol to (+)-pinoresinol with dirigent protein and oxidase/oxidant; assay type: biochemical, Forsythia intermedia; conditions: (+)-pinoresinol formation from E-coniferyl alcohol, dirigent protein 770 pmol ml^−1 alone or with Fraction III 12 μg protein ml^−1, laccase 2.07 pmol ml^−1, FMN 0.5 μmol ml^−1; for Km: read-out: Formal Km
Procedure: Assays were carried out as described in Example 3 by incubating a series of E-[9-^3H]coniferyl alcohol concentrations (between 8.00 and 0.13 μmol ml^−1, 7.3 MBq mole literl) with dirigent protein (770 pmol ml^−1) alone and in presence of Forsythia laccase (2.1 pmol ml^−1), fraction III (12 μg protein ml^−1), or FMN (0.5 μmol ml^−1). Assays with dirigent protein, in presence or absence of FMN, were incubated at 30° C. for 1 hour, whereas assays with Forsythia laccase or fraction III in presence or absence of dirigent protein were incubated at 30° C. for 15 min. If free-radical capture by the dirigent protein is the operative mechanism, the Michaelis-Menten parameters obtained will only represent formal rather than true values, because the highest free-energy intermediate state during the conversion of E-coniferyl alcohol into (+)-pinoresinol is still unknown and the relation between the concentration of substrate and that of the corresponding intermediate free-radical in open solution has not been delineated.
Bearing these qualifications in mind, we estimated formal Km and Vmax values for the dirigent protein preparation.

[6] = substrate: COc1cc(C[C@H]2CO[C@H](c3ccc(O)c(OC)c3)[C@H]2CO)ccc1O; assay: Initial velocity studies, reductase 35 kDa isoform; assay type: biochemical, Forsythia intermedia; conditions: other: 35 kDa form of the enzyme, NADPH 80 μM, pH 7.4, 30° C.
Procedure: Kinetic Parameters. […] The initial velocity studies were carried out individually utilizing the two isoforms of the enzyme, and individually employing both (+)-pinoresinol and (+)-lariciresinol as substrates. Initial velocity studies were performed in triplicate experiments, using 50 mM Bis-Tris Propane buffer, pH 7.4 containing 5 mM dithiothreitol, pure enzyme (after MonoQ anion-exchange chromatography), ten different substrate concentrations (between 8.8 and 160 μM) at a constant NADPH concentration (80 μM). Incubations were carried out at 30° C. for 10 min (within the linear kinetic range). Kinetic parameters were determined from Lineweaver-Burk plots.

[7] = substrate: COc1cc(C[C@H]2CO[C@H](c3ccc(O)c(OC)c3)[C@H]2CO)ccc1O; assay: purified protein, by the assay type; conditions: other: 36 kDa form of the enzyme, NADPH 80 μM, pH 7.4, 30° C.
[8] = test system: E-coniferyl alcohol; assay: (+)-Pinoresinol-forming activity from E-[9-3H]coniferyl alcohol; assay type: biochemical, Forsythia intermedia
[9] = dirigent protein absent, FMN 0.5 μmol ml^−1 or ammonium peroxydisulfate 10 μmol ml^−1
[10] = dirigent protein present (770 pmol ml^−1), FMN 0.5 μmol ml^−1 or ammonium peroxydisulfate 10 μmol ml^−1
[11] = ammonium peroxydisulfate 1 μmol ml^−1, dirigent protein absent
[12] = ammonium peroxydisulfate 1 μmol ml^−1, dirigent protein present (770 pmol ml^−1)
[13] = ammonium peroxydisulfate 10 μmol ml^−1, dirigent protein absent
[14] = ammonium peroxydisulfate 10 μmol ml^−1, dirigent protein present (770 pmol ml^−1)
[15] = dirigent protein (770 pmol ml^−1) alone, no added oxidant

Molecule: COc1cc(C[C@]2(O)C(=O)OC[C@H]2Cc2ccc(OC)c(OC)c2)ccc1O (single isomer, unassigned) [(+)-enantiomer]
- inhibition of in vitro replication of HW-1 [1]: much less effective

Molecule: COc1cc(C[C@H]2C(=O)OC[C@@H]2Cc2ccc(OC)c(OC)c2)ccc1O [(−)-arctigenin]
- effectiveness against HIV (reverse transcriptase inhibitory activities) [2]: effective against HIV

Molecule: (−)-trachelogenin
- effectiveness against HIV (reverse transcriptase inhibitory activities) [2]: effective against HIV
- inhibition of in vitro replication of HW-1 [1]: inhibits

Molecule: CC(Cc1ccc(O)c(O)c1)C(C)Cc1ccc(O)c(O)c1 (centres unmarked) [nordihydroguaiaretic acid]
- effectiveness against HIV (reverse transcriptase inhibitory activities) [2]: effective against HIV

Molecule: N.N.O=S(=O)(O)OOS(=O)(=O)O [Ammonium peroxydisulfate]
- E-Sinapyl alcohol in dimer equivalents depleted [3, 9]: 1400 ± 120 nmol/mL
- Racemic (±)-syringaresinols [3, 9]: 1020 ± 40 nmol/mL
- E-Sinapyl alcohol in dimer equivalents depleted [3, 10]: 1520 ± 10 nmol/mL
- Racemic (±)-syringaresinols [3, 10]: 1060 ± 30 nmol/mL
- (+)-Pinoresinol [4, 11]: 0 nmol/mL
- (±)-Dehydro-diconiferyl alcohols [4, 11]: 35 ± 2 nmol/mL
- (±)-Guaiacyl-glycerol 8-O-4′-coniferyl alcohol ethers [4, 11]: 10 ± 1 nmol/mL
- (±)-Pinoresinols [4, 11]: 16 ± 0 nmol/mL
- E-Coniferyl alcohol in dimer equivalents depleted [4, 11]: 200 ± 4 nmol/mL
- Total dimers [4, 11]: 61 ± 3 nmol/mL
- (+)-Pinoresinol [4, 12]: 130 ± 10 nmol/mL
- (±)-Dehydro-diconiferyl alcohols [4, 12]: 13 ± 1 nmol/mL
- (±)-Guaiacyl-glycerol 8-O-4′-coniferyl alcohol ethers [4, 12]: 6 ± 0 nmol/mL
- (±)-Pinoresinols [4, 12]: 0 nmol/mL
- E-Coniferyl alcohol in dimer equivalents depleted [4, 12]: 250 ± 55 nmol/mL
- Total dimers [4, 12]: 149 ± 11 nmol/mL
- (+)-Pinoresinol [4, 13]: 0 nmol/mL
- (±)-Dehydro-diconiferyl alcohols [4, 13]: 250 ± 10 nmol/mL
- (±)-Guaiacyl-glycerol 8-O-4′-coniferyl alcohol ethers [4, 13]: 90 ± 4 nmol/mL
- (±)-Pinoresinols [4, 13]: 135 ± 4 nmol/mL
- E-Coniferyl alcohol in dimer equivalents depleted [4, 13]: 860 ± 30 nmol/mL
- Total dimers [4, 13]: 475 ± 17 nmol/mL
- (+)-Pinoresinol [4, 14]: 450 ± 10 nmol/mL
- (±)-Dehydro-diconiferyl alcohols [4, 14]: 90 ± 3 nmol/mL
- (±)-Guaiacyl-glycerol 8-O-4′-coniferyl alcohol ethers [4, 14]: 30 ± 1 nmol/mL
- (±)-Pinoresinols [4, 14]: 0 nmol/mL
- E-Coniferyl alcohol in dimer equivalents depleted [4, 14]: 1030 ± 25 nmol/mL
- Total dimers [4, 14]: 570 ± 14 nmol/mL

Molecule: Cc1cc2nc3c(=O)[nH]c(=O)nc-3n(C[C@H](O)[C@H](O)[C@H](O)COP(=O)(O)O)c2cc1C [FMN, flavin mononucleotide]
- E-Sinapyl alcohol in dimer equivalents depleted [3, 9]: 570 ± 100 nmol/mL
- Racemic (±)-syringaresinols [3, 9]: 290 ± 40 nmol/mL
- E-Sinapyl alcohol in dimer equivalents depleted [3, 10]: 610 ± 110 nmol/mL
- Racemic (±)-syringaresinols [3, 10]: 340 ± 40 nmol/mL
- Vmax [5]: 0.024 ± 0.001 mol s^−1 mol^−1 dirigent protein
- Km [5]: 100 ± 10 µM

B1: 35 kDa form of (+)-pinoresinol/(+)-lariciresinol reductase (Forsythia x intermedia) (protein)
chain: GKSKVLIIGGTGYLGRRLVKASLAQGHETYILHRPEIGVDIDKVEMLISFKMQGAHLVSGSFKDFNSLVEAVKLVDVVISAISGVHIRSHQILLQLKLVEAIKEAGNVKRFLPSEFGMDPAKFMDTAMEPGKVTLDEKMVVRKAIEKAGIPFTYVSANCFAGYFLGGLCQFGKILPSRDFVIIHGDGNKKAIYNNEDDIATYAIKTINDPRTLNKTIYISPPKNILSQREVVQTWEKLIGKELQKITLSKEDFLASVKELEYAQQVGLSHYHDVNYQGCLTSFEIGDEEEASKLYPEVKYTSVEEYLKRYV
notes: pure enzyme (after MonoQ anion-exchange chromatography); from tissue; host or cells: Forsythia intermedia stems
- Km [6]: 121 ± 5.0 µM
- Vmax [6]: 25.2±0.7 μmol h^−1 mg^−1 of protein

B2: 36 kDa form of (+)-pinoresinol/(+)-lariciresinol reductase (Forsythia x intermedia) (protein)
chain: B1 chain
- Km [7]: 123 ± 6.0 µM
- Vmax [7]: 29.9±0.7 μmol h^−1 mg^−1 of protein

B3: Dirigent protein: 78-kD protein purified from Forsythia intermedia stems that guides stereoselective coupling of E-coniferyl alcohol radicals to (+)-pinoresinol (protein)
chain: MVSKTQIVALFLCFLTSTSSATYGRKPRPRRPCKELVFYFHDVLFKGNNYHNATSAIVGSPQWGNKTAMAVPFNYGDLVVFDDPITLDNNLHSPPVGRAQGMYFYDQKNTYNAWLGFSFLFNSTKYVGTLNFAGADPLLNKTRDISVIGGTGDFFMARGVATLMTDAFEGDVYFRLRVDINLYECW
- (+)-pinoresinol-forming activity ([8]; E-[9-3H]coniferyl alcohol as substrate for one hour): < 5 % of total activity loaded onto the POROS SP-M column
- (+)-pinoresinol formation (residual oxidizing capacity) ([8]; protein by itself, over 10 hours): < 5%
- E-Sinapyl alcohol in dimer equivalents depleted [3, 15]: 110 ± 10 nmol/mL
- Racemic (±)-syringaresinols [3, 15]: 50 ± 10 nmol/mL
- (+)-Pinoresinol [4, 15]: 55 ± 1 nmol/mL
- (±)-Dehydro-diconiferyl alcohols [4, 15]: 8 ± 1 nmol/mL
- (±)-Guaiacyl-glycerol 8-O-4′-coniferyl alcohol ethers [4, 15]: 5 ± 1 nmol/mL
- (±)-Pinoresinols [4, 15]: 0 nmol/mL
- E-Coniferyl alcohol in dimer equivalents depleted [4, 15]: 61 ± 20 nmol/mL
- Total dimers [4, 15]: 68 ± 3 nmol/mL
- Vmax [5]: 0.02 ± 0.02 mol s^−1 mol^−1 dirigent protein
- Vmax ([5]; listed as dirigent protein): 0.02±0.02 mol s^−1 mol^−1 dirigent prote
- Km [5]: 10000 ± 6000 µM
